Measurements published in US12606795B2 (Thankcome Biological Science and Technology (SuZhou) Co., …, priority 2023, dated 2026).
Marks after values point to notes of the source that are not given here.

Legend:
[1] = system: APP/PS1 double transgenic mice; experiment: Alzheimer's disease in APP/PS1 double transgenic mice; assay type: in vivo
Source text: 20 12-month-old APP/PS1 double transgenic mice (Hangzhou Ziyuan Experimental Animal Technology Co., Ltd., batch MJ0324-058) were randomly divided into two groups: an APP group and an APP+AKK group, with 10 mice in each group. Another 10 littermate wild-type C57 BL/6J mice were taken as blank, which served as a WT group. All mice were given intragastric administration and injection for 30 d at 12-month age (see Table 7 for intragastric administration conditions). After all the experiments ended, blood was collected from the orbital veins of the mice. The mice were sacrificed by cervical dislocation. Part of brain tissue, liver tissue and colon tissue of the mice were taken and placed in 4% paraformaldehyde, and the remaining tissue was placed in an ultra-low temperature freezer at −80° C. for storage.
DDW: Double distilled water.
After administration, a Morris water maze experiment of a 4-day duration was conducted firstly. The water maze consists of a circular pool (with a diameter of 120 cm) and is evenly divided into four quadrants. During the experiment, the mice were moved into a laboratory two hours in advance to acquaint themselves with the environment. The water temperature was adjusted to around 21° C. to 22° C., and then milk was poured into the pool to make the water milky white. D1 to D3 were a training period, during which the mice were gently placed into the water from first, second, third, and fourth quadrants with their faces towards the direction of the pool wall reminders. Swimming trajectories at 1 min were recorded. […] Each mouse was trained once per day per quadrant for 3 consecutive days. D4 was an experimental period, during which a quadrant was randomly selected for each mouse and then the mice were placed in the pool. The time required to find the platform within 60 s, i.e., escape latency, was recorded, and the swimming trajectory of each mouse was recorded with a video acquisition system. If the mouse fail to find the platform within 60 s after entering the water, the escape latency is recorded as 60 s.
A hippocampus was homogenized in 1 mL RIPA (Thermofisher, Waltham, MA, USA) and 10 μL PMSF (Thermofisher), and the homogenized hippocampus was centrifuged at 4° C. at 12000×g for 5 min. Proteins were quantified using a BCA protein assay kit (Thermofisher). A protein sample was mixed with a sample buffer (Thermofisher) in a ratio of 4:1, and the mixture was heated at 95° C. for 5 min. Then the sample was dispensed into gel pores of SDS-PAGE gel and the gel was run at 100 V. Strips on SDS-PAGE gel were transferred onto a PVFD membrane. The PVDF membrane was sealed with 5% skim milk for 1 h, and then the stripes were incubated overnight with a primary antibody (Thermofisher) at 4° C. An antibody (Thermofisher) was added after the membrane was washed and the incubation was performed for 1 h. Images on iBright™ (Thermofisher) were obtained after chemiluminescence was performed using a western ECL substrate (Thermofisher), where the images were used for subsequent analysis.
The hippocampus was taken and homogenized with PBS, and then liquid supernatant was drawn for the experiment. The levels of IL-4 (interleukin-4, Nanjing Jiancheng Biological Engineering Research Institute, product number: H005-1-2), IL-10 (interleukin-10, Nanjing Jiancheng Biological Engineering Research Institute, product number: H009-1-2), CCL2 (chemokine ligand 2, Nanjing Jiancheng Biological Engineering Research Institute, product number: H318-1) and CXCL1 (CXC chemokine ligand 1, Nanjing Jiancheng Biological Engineering Research Institute, product number: H306-1) in the hippocampus were tested by the instruction of the ELISA kit.

[2] = system: APP/PS1 double transgenic mice; experiment: as above; assay type: in vivo; settings: 1*10^9 CFU/mouse/d 30 d
Auto-aggregation = assay type: physicochemical; settings: 37° C., at 20 h
Method: The absorbance (OD600 nm) was adjusted to 0.5. Then the bacterial suspension was cultured at 37° C., and its absorbance at 600 nm at 4, 8, 12, 16, 20, and 24 h was measured. The auto-aggregation percentage was calculated using the following formula: […]

[3] = 1*10^9 CFU/mouse/d intragastric 30 d, vs APP group
[4] = APP+AKK group compared with APP group

For Akkermansia muciniphila [AKK PROBIO], the “escape latency (Morris water maze)” value [1, 3] was “shortened”, the “path to finding the platform (Morris water maze)” value [1, 3] was “significantly shortened” and the “levels of CXCL1 and CCL2” value [1, 4] was “declining trend”. For the same substance, the “levels of IL-4 and IL-10” value [1, 4] was “rising trend”, the “Hippocampus IL-4” value ([1]; APP/PS1 mice, 1*10^9 CFU/mouse/d 30 d, APP group 54.73, WT 410.91) was 210.90 ± 19.77^c and the “Hippocampus CCL2” value ([1]; APP/PS1 mice, 1*10^9 CFU/mouse/d 30 d, APP group 159.11, WT 103.32) was 123.20 ± 0.50^b. The “Hippocampus Aβ” value ([1]; APP/PS1 mice, 1*10^9 CFU/mouse/d 30 d, APP group 348.45, WT 59.23) was 185.15 ± 9.07^b, the “Hippocampus IL-10” value ([1]; APP/PS1 mice, 1*10^9 CFU/mouse/d 30 d, APP group 1035.86, WT 3373.80) was 2516.88 ± 91.80^c and the “Hippocampus CXCL1” value ([1]; APP/PS1 mice, 1*10^9 CFU/mouse/d 30 d, APP group 1217.20, WT 355.37) was 653.77 ± 15.44^b. The “Serum IL-4” value ([2]; APP group 35.00, WT 106.52) was 70.42 ± 3.40^c, the “Serum CCL2” value ([2]; APP group 80.13, WT 59.07) was 67.74 ± 1.51^b and the “Serum CXCL1” value ([2]; APP group 168.91, WT 14.87) was 56.40 ± 2.88^b. The “Serum IL-10” value ([2]; APP group 565.36, WT 2779.61) was 2133.04 ± 18947^b and the auto-aggregation (Auto-aggregation) was “around 52%”.
